Source: patent publication US20200289482A1, “CYSTIC FIBROSIS TRANSMEMBRANE CONDUCTANCE REGULATOR MODULATORS FOR TREATING AUTOSOMAL DOMINANT POLYCYSTIC KIDNEY DISEASE” (The Johns Hopkins University, priority 2017, published 2020)

Legend:
Type in all cases: cell-based, mouse
cAMP in PN cells = experiment: Cyclic AMP enzyme immunoassay in cells; conditions: for increase of cAMP activity in PN cells: treating PN cells with forskolin or IBMX
Protocol: FIG. 4A, FIG. 4B, FIG. 4C, FIG. 4D, and FIG. 4E show (FIG. 4A-FIG. 4B) cAMP levels are reduced by VX-809. (FIG. 4A) cAMP levels in mouse tissue were reduced by VX-809. The kidney samples (n=6) analyzed were taken from those depicted in FIG. 1. (FIG. 4B) Confluent PN and PH cells were treated with VX-809 (10 μM) or DMSO for 16 h and then treated with forskolin (100 μM) for 30 min before the cells were harvested for the assay. Columns represent means±SEM. Statistical analysis was performed using a two-tailed Student's t-test. Each set of data is from three individual wells; Note that resting cAMP is greater in PN vs PH cells as previously shown (25). Also note that forskolin caused a large increase in cAMP. A smaller increase occurred with IBMX. However, the increase induced by forskolin alone was similar to that by IBMX plus forskolin. […] (FIG. 4C, FIG. 4D, and FIG. 4E) Adenylyl cyclase expression. (FIG. 4C) Western blot showing the expression of adenylyl cyclase (AC) 6 and AC3 in treated and control PN cells. (FIG. 4D-FIG. 4E) Columns represent means±SEM of the AC3 and AC6 expression. The data were analyzed by non-parametric t-test. The experiment was repeated four times. For all graphs, *P<0.05, **P<0.01, and ***P<0.001;
It has been shown previously in both animal and cell culture models of ADPKD that cells lacking functional PC1 have elevated cAMP levels when compared to normal (24). To assess the effect of CFTR correctors, cAMP activity was measured in PC1 conditional knockout mouse kidneys and in PN cells that were either left untreated or treated with VX-809. […] Cells were treated with forskolin, which increased cAMP levels drastically (FIG. 4B). […] Treating PN cells with forskolin or IBMX (FIG. 4B) increased the cAMP activity by ˜10-fold.
Confluent cells were treated with VX-809 (10 μM) or DMSO for 16 h before being harvested for assay. Cyclic AMP levels were measured with a direct cAMP Enzyme Immunoassay Kit (Sigma, # CA200) according to the manufacturer's protocol. The results are expressed as pmole/ml. Statistical analysis was performed using a two-tailed Student's t-test.

Hsp70 = experiment: Cycloheximide chase, disappearance of Hsp70 in PN cells; conditions: cycloheximide 25 μM, 8 h
Protocol: (§1) FIG. 9A, FIG. 9B, FIG. 9C, FIG. 9D, FIG. 9E, FIG. 9F, FIG. 9G, and FIG. 9H show Hsp27, HSp70, and Hsp90 expression in PN cells treated with VX-809 and/or cycloheximide. (A) Pkd1 null (PN) cells were treated with VX-809 (10 μM) and/or with cycloheximide (25 μM) for indicated time points before being harvested for the assay. (FIG. 9A) Western blot showing expression of Hsp27, Hsp70, and Hsp90 in VX-809-(16 h), cycloheximide-treated, or control PN cells. ((FIG. 9B. (FIG. 9C, and (FIG. 9D) Columns represent averages±standard errors of Hsp27, Hsp70, and Hsp90 expression in cells treated with VX-809 and/or cycloheximide. ((FIG. 9E) Western blot showing expression of Hsp27, Hsp70, and Hsp90 in PN cells treated with VX-809+cycloheximide or control PN cells. ((FIG. 9F, (FIG. 9G, and (FIG. 9H) Columns represent averages±standard errors of Hsp27, Hsp70, and Hsp90 expression in cells treated only with cycloheximide or in control PN cells. Data were analyzed by non-parametric t-test. The experiments were repeated 3-5 times. *P<0.05, **P<0.01;
(§2) To gain more insight into the mechanism whereby VX-809 alters Hsp protein levels, translation was inhibited by using cycloheximide (35) and the disappearance of the three Hsps was monitored. […] Hsp 90 was reduced by approximately 25%, and Hsp27 was unchanged.

Hsp27 = experiment: Cycloheximide chase, disappearance of Hsp27 in PN cells; conditions: cycloheximide 25 μM, 8 h
Protocol: as §1, §2

Hsp90 = experiment: Cycloheximide chase, disappearance of Hsp90 in PN cells; conditions: cycloheximide 25 μM, 8 h
Protocol: as §1, §2

CC(C)Cn1c(=O)n(C)c(=O)c2[nH]cnc21 [IBMX, 3-isobutyl-1-methylxanthine]
increase of cAMP activity in PN cells (cAMP in PN cells): ~10 fold

C=C[C@@]1(C)CC(=O)[C@]2(O)[C@@]3(C)[C@@H](O)CCC(C)(C)[C@@H]3[C@H](O)[C@H](OC(C)=O)[C@@]2(C)O1 [forskolin]
forskolin elevates cAMP activity (cAMP in PN cells; as restated at the end of Example 4): ~500 fold
increase of cAMP activity in PN cells (cAMP in PN cells): ~10 fold

C[C@@H]1C[C@@H]([C@H](O)CC2CC(=O)NC(=O)C2)C(=O)[C@@H](C)C1 [cycloheximide]
steady-state level of Hsp70 after cycloheximide alone (Hsp70): unchanged over the 8 h
steady-state level of Hsp27 after cycloheximide alone (Hsp27): unchanged over the 8 h
steady-state level of Hsp90 after cycloheximide alone (Hsp90): unchanged over the 8 h
